Laboratory results: patent publication US10556021B2, “Nanocarriers for drug delivery” (THE REGENTS OF THE UNIVERSITY OF CALIFORNIA, priority 2008, dated 2020)

What was measured:
[1] = test system: intraperitoneal SKOV3-luc ovarian tumor; assay: Biodistribution after i.p. injection, xenograft model III; type: in vivo, mice; conditions: up to 72 h
Description: PEG^5000-CA8 (polymer 7) nanoparticles biodistribution after i.p. injection in intraperitoneal SKOV3-luc ovarian tumor bearing mice was investigated. Mice were injected i.p. with free DiD or DiD-loaded PEG^5000-CA8 nanoparticles. […] At 72 h, the peritoneal cavity was exposed and scanned with the Kodak imaging station, displaying DiD-labeled PEG^5000-CA8 nanoparticles localization on the surface of peritoneal tumor nodules (FIGS. 38A-38B).

[2] = test system: SKOV-3 ovarian cancer xenografts; assay: Size effect on biodistribution, NIR imaging, xenograft model II; set-up: species or system nude mice; conditions: in vivo NIR imaging
Description: To study the effects of particle size on the in vivo biodistribution of nanoparticles, the same concentration of DiD (a hydrophobic near infra-red (NIR) cyanine dye, 1 mg/mL) was co-loaded with PTX (4 mg/mL, 4 mg/mL and 3 mg/mL, respectively) into 20 mg/mL micelle solutions of PEG^2000-CA4, PEG^5000-CA8 and PEG^3000-CA4, to form three fluorescence labeled micelle preparations with distinct sizes of 17 nm, 64 nm and 154 nm, respectively (FIG. 35A). Each of these three sizes of DiD-loaded micelles was incubated with Raw 264.7 macrophage cells for 2 h. The cells were then washed three times with PBS, fixed with 70% ethanol and observed under confocal fluorescence microscope. […] NIR fluorescent imaging was used to evaluate the in vivo biodistribution of the three micelles with different sizes in nude mice bearing the SKOV-3 ovarian cancer xenografts (subcutaneous and intraperitoneal implants). The mice were injected via the tail vein with the same volume of the above three PTX-DiD loaded micelle preparations in PBS. Ex vivo imaging of the excised organs and tumors were performed at 24 h after injection. […] The in vivo NIR images of a tumor bearing mouse treated with the DiD-PTX-PEG^5000CA8 was recorded over time (FIG. 35D). The accumulation of the DiD loaded micelles at the tumor site via the EPR effect began at 2 h after injection and continued to increase over the 24 h period.

**Q.** What does the source list for `CCCCCCCCCCCCCCCCCCN1C(=CC=CC=CC2=[N+](CCCCCCCCCCCCCCCCCC)c3ccccc3C2(C)C)C(C)(C)c2ccccc21.[O-][Cl+3]([O-])([O-])[O-]` [DiD, 1,1′-dioctadecyl-3,3,3′,3′-tetramethylindo-dicarbocyanine perchlorate]?
**A.** fluorescence distribution after i.p. injection [1]: declined to a level not distinguishable from background auto-fluorescence at 72 h; tumor targeting [2]: no tumor targeting was found
